{"source": "paper PMC12864594", "about": "“Photoactivated Proximity Protein Labeling Reveals Enhanced Tumor Retention of a D‐Peptide‐Ruthenium Prodrug Conjugate” (Advanced Healthcare Materials, 2025)", "key": {"A549 cells [1]": {"test_system": "A549 cells", "assay": "Intracellular ROS generation, CellROX Deep Red probe, FACS", "type": "cell-based, human", "conditions": "for Normalized intracellular ROS generation, light: light 515 nm, 13.1 J cm^−2", "protocol": "To determine the pathway by which the compounds cause cell death, a ROS generation assay was performed for Δ and Λ isomers of [1]Cl2–[3]Cl2 in A549 cells using the unspecific molecular probe CellROX Deep Red. This assay was used to quantify the formation of singlet oxygen, superoxide, and […], both in the dark or upon green light irradiation (515 nm, 13.1 J cm^−2). The cells treated with medium, Tert‐butyl hydroperoxide (tBHP), cisplatin, and Rose Bengal were used as vehicle control, positive control, negative control, and green light‐activated PDT type II control, respectively. These experiments were conducted in normoxic and hypoxic cells at the same time. The mean fluorescence intensity in each cell, which was quantified by FACS and normalized to that of controls, is a relative measure of intracellular ROS production (see Table 3; raw data in Figures S30 and S31, Supporting Information). At the end of the assay, the absolute ratio R, defined as the ratio of the ROS probe emission intensity in the light group, divided by that in the dark group, was used as quantification of light‐induced ROS production.\nThe generation of ROS (reactive oxygen species) in A549 cells was measured using the ROS deep red fluorescence indicator (Abcam, ab186029). A549 (1 × 10^5, 1 mL) were seeded into 12‐well plates (Sarstedt, 83.3921) and incubated for 24 h in the dark under normoxia. The cells were then treated with [1]Cl2 ‐[3]Cl2, cisplatin, Rose Bengal or [Ru(Ph2phen)2Cl2] (15 µM). There were two groups for each drug (dark and light). After 24 h of incubation under normoxia, the plate was washed with cold PBS once, and cells were trypsinized, harvested, and then resuspended in 150 µL PBS. The cell suspension from the centrifuge tubes was transferred to 96‐round bottom well plates (Thermo Scientific, 268200), and the plates were kept in the dark or irradiated with […] light (dose = 13.1 J cm^−2). After which, the Cellular ROS Deep Red dye was added with 1000× dilution, and the cells were further stained for 1 h. The levels of intracellular ROS were then determined using the CytoFLEX flow cytometer using the APC‐A (638 nm excitation, 660/10 nm emission) channel. All flow cytometry data were processed using FlowLogic 8.5 software."}, "[2]": {"conditions": "mixture of the Δ‐ and Λ‐ isomers; cited from earlier work", "from_the_text": "Table 1 Photochemical properties of isolated Δ and Λ diastereoisomers of [1]Cl2–[3]Cl2 including molar extinction coefficients (ε, in M ^−1 cm^−1) at absorption maximum wavelength (405 nm), photosubstitution quantum yields for step 1 (ΦPS1) and step 2 (ΦPS2) in H2O or 50% MeCN in H2O under green light irradiation, and singlet oxygen quantum yields of each complexes in CD3OD. | column: Complex || To evaluate the efficiency of these ruthenium‐peptide conjugates [1]Cl2–[3]Cl2 as potential PDT type II agents, the quantum yields (ΦΔ) of singlet oxygen generation were further measured by direct spectroscopic detection of ^1O2 emission at 1275 nm in air‐saturated CD3OD (Table 1; Figure S21, Supporting Information). The ΦΔ value for a mixture of the Δ‐ and Λ‐ isomers of [1]Cl2 was already reported in our previous work (0.013 ± 0.005)^[ [51] ^]; within experimental errors, the values found for the isolated isomers were identical (0.008 ± 0.005 and 0.009 ± 0.005), and, like for the isomers of [ ..."}, "A549 cells [3]": {"test_system": "A549 cells", "assay": "2D cytotoxicity, sulforhodamine B (SRB) end point assay", "type": "cell-based, human", "conditions": "A549 2D normoxic cells, 72 h, without washing, no irradiation", "protocol": "Considering the potential of the six diastereomers for PACT, and their better targeting of αvβ3 in hypoxic A549 cells, compared with PC‐3, their cytotoxicity was determined in 2D monolayers of normoxic and hypoxic A549 cells using a sulforhodamine B (SRB) cell quantification end point assay^[ [66] ^] in the dark (light dose 0 J cm^−2) or upon green light activation (light dose 13.1 J cm^−2). Half‐maximal effective concentrations (EC50 in µM) were measured as an evaluation of the toxicity of the compounds. The photoindex values (PI), defined as EC50,dark/ EC50,light, were calculated to quantify the extent of light activation in cancer cells. […]\nA549 cells (5000) or PC‐3 cells (6000) were seeded in 96‐well plates (Sarstedt, 83.3924), each well contained 100 µL Opti‐MEM (Gibco complete medium 11058‐021, supplemented with 2.5% v/v fetal calf serum (FCS), 0.2% v/v penicillin/streptomycin (P/S), and 1% v/v glutamine) either in normoxic (21% O2) or hypoxic (1.0% O2) incubator. […] Finally, 100 µL of cold trichloroacetic acid (10% w/v) was added to each well to fix the cells, and all plates were then transferred to a 4 °C refrigerator for 48 h before performing an SRB cell quantification endpoint assay (see below).^[ [66] ^] […] Errors were calculated utilizing 95% confidence intervals (±CI in µM). […]"}, "[4]": {"conditions": "A549, hypoxia (1%), 15 µM, 24 h"}, "[5]": {"conditions": "A549, hypoxia (1%), 15 µM, 24 h, dark, normalized to dark control"}, "[6]": {"conditions": "A549, hypoxia (1%), 15 µM, 24 h, normalized to dark control"}, "[7]": {"conditions": "A549, normoxia (21%), 15 µM, 24 h"}, "[8]": {"conditions": "A549, normoxia (21%), 15 µM, 24 h, dark, mean fluorescence normalized to dark control"}, "[9]": {"conditions": "A549, normoxia (21%), 15 µM, 24 h, normalized to dark control"}}, "note": "Values joined by “and” are separate entries in the source; they are usually repeats but may differ in a detail not shown here. Identical values can stand only once. Peptide text beside a SMILES is read from it."}
{"compound": "O=C([O-])c1c(Cl)c(Cl)c(Cl)c(Cl)c1-c1c2cc(I)c(=O)c(I)c-2oc2c(I)c([O-])c(I)cc12.[Na+].[Na+]", "note": "[Rose Bengal]", "values": [{"measurement": "R (ROS probe emission light group / dark group)", "setting": "A549 cells [1]; [4]", "result": 3.05}, {"measurement": "Normalized intracellular ROS generation, dark", "setting": "A549 cells [1]; [5]", "result": 0.84}, {"measurement": "Normalized intracellular ROS generation, light", "setting": "A549 cells [1]; [6]", "result": 2.56}, {"measurement": "R (ROS probe emission light group / dark group)", "setting": "A549 cells [1]; [7]", "result": "5.2 and 5.21"}, {"measurement": "Normalized intracellular ROS generation, dark", "setting": "A549 cells [1]; [8]", "result": 0.90}, {"measurement": "Normalized intracellular ROS generation, light", "setting": "A549 cells [1]; [9]", "result": 4.71}]}
{"compound": "[Ru(Ph2phen)2(Ac‐MRGDM‐NH2)]Cl2 (sidechain bridge or staple) [[1]Cl2]", "values": [{"measurement": "ΦΔ (1O2) singlet oxygen quantum yield", "setting": "[2]", "result": "0.013 ± 0.005"}]}
{"compound": "F[P-](F)(F)(F)(F)F.F[P-](F)(F)(F)(F)F.[Ru+2].c1ccc(-c2ccnc3c2ccc2c(-c4ccccc4)ccnc23)cc1.c1ccc(-c2ccnc3c2ccc2c(-c4ccccc4)ccnc23)cc1", "note": "[[Ru(Ph2phen)2(H2O)2](PF6)2]", "values": [{"measurement": "EC50", "setting": "A549 cells [3]", "result": "> 100", "unit": "µM"}]}
{"compound": "CC(C)(C)OO", "note": "[tBHP, Tert‐butyl hydroperoxide]", "values": [{"measurement": "Normalized intracellular ROS generation, dark", "setting": "A549 cells [1]; A549, hypoxia (1%), positive control 250 µM, 1 h", "result": 4.36}, {"measurement": "Normalized intracellular ROS generation, dark", "setting": "A549 cells [1]; A549, normoxia (21%), positive control 250 µM, 1 h", "result": 14.00}]}
{"compound": "CSCC[C@H](NC(=O)[C@@H](CC(=O)O)NC(=O)CNC(=O)[C@@H](CCCNC(=N)N)NC(=O)[C@H](CCSC)NC(C)=O)C(N)=O", "note": "(HELM PEPTIDE1{[ac].M.[dR].G.[dD].M.[am]}$$$$V2.0)", "values": [{"measurement": "molar extinction coefficient ε × 10^4 at 405 nm (× 10^4 M^−1 cm^−1)", "result": "1.12 and 1.05"}]}
{"compound": "CSCC[C@@H](NC(=O)[C@@H](CC(=O)O)NC(=O)CNC(=O)[C@@H](CCCNC(=N)N)NC(=O)[C@@H](CCSC)NC(C)=O)C(N)=O", "values": [{"measurement": "molar extinction coefficient ε × 10^4 at 405 nm (× 10^4 M^−1 cm^−1)", "result": "1.16 and 1.27"}]}
{"compound": "Ac-MRGDM-NH2", "values": [{"measurement": "molar extinction coefficient ε × 10^4 at 405 nm (× 10^4 M^−1 cm^−1)", "result": "1.18 and 1.21"}]}
{"compound": "N.N.[Cl][Pt][Cl]", "note": "[Cisplatin, cisplatin]", "values": [{"measurement": "R (ROS probe emission light group / dark group)", "setting": "A549 cells [1]; [4]", "result": 2.00}, {"measurement": "Normalized intracellular ROS generation, dark", "setting": "A549 cells [1]; [5]", "result": 1.00}, {"measurement": "Normalized intracellular ROS generation, light", "setting": "A549 cells [1]; [6]", "result": 1.99}, {"measurement": "R (ROS probe emission light group / dark group)", "setting": "A549 cells [1]; [7]", "result": 1.74}, {"measurement": "Normalized intracellular ROS generation, dark", "setting": "A549 cells [1]; [8]", "result": 1.28}, {"measurement": "Normalized intracellular ROS generation, light", "setting": "A549 cells [1]; [9]", "result": 2.23}]}
